In patent publication US20260041093A1, “Ionic Derivatives Of Aromatic Carboxylic Acid For Use As Plant Stimulants, Method For Stimulating Plants And Use Of These Derivatives For Manufacturing Compositions For Stimulating Plants” (FUNDACJA UNIWERSYTETU IM. ADAMA MICKIEWICZA W POZNANIU, priority 2022, published 2026):
Where two headings read alike, the source gives them in different places.

Key:
tomato = test: Greenhouse tomato sprayed three times: yield, health-promoting substances, leaf chlorophyll (Example 2); type: in vivo; conditions: 80 mg/L, benzothiadiazole salt 30 mg/L, chitosan lactate 50 mg/L
Protocol: Biostimulant properties were evaluated for the following stimulants: […] The evaluation of stimulant properties included the influence of tested substances on tomato yield, content of health-promoting substances in yield and chlorophyll content in tomato leaves. […] The untreated control plants were sprayed with distilled water. During the experiment, total yield weight, commercial and non-commercial yield and average commercial fruit weight, number of fruits per plant and average fruit weight per plant were evaluated. […] Chlorophyll was measured before each treatment and one day after each treatment using Minolta's SPAD-502 chlorophyll meter.

bell pepper = test: Bell pepper seedlings in pots sprayed: height, fresh and dry weight (Example 5); type: in vivo
Protocol: Pepper seedlings were planted into pots with peat substrate (P9 pots having 0,5 l). Pots were placed in greenhouse and cultivated for a 1 month. […] Plants treated with water only were the untreated control. During the course of the experiment, the height of the plants was measured, and at the end the fresh and dry weight of the aboveground part was evaluated.

winter wheat = tested on: winter wheat
Protocol: The experiment was established using the long strip method, in four repetitions Gross area of each plot was 48 m^2, while the harvest area was 23.25 m^2 net. Following variants of treatment were tested: • 1. Control—no stimulant application, standard fungicide programme • 2. Stimulant application at BBCH 32, standard fungicide programme • 3. Stimulant application at BBCH 32, no fungicide application • 4. Stimulant application at BBCH 55 and 10-12 days later, standard fungicide programme • 5. […] In this experiment, standard NPK fertilization was applied, using both bulk and liquid fertilizers.
The experiment was established using the long strip method, in four repetitions Gross area of each plot was 48 m2, while the harvest area was 23.25 m2 net. Following variants of treatment were tested: • 1. Control—no stimulant application, standard fungicide programme, • 2. Stimulant application at BBCH 32, standard fungicide programme • 3. Stimulant application at BBCH 32, no fungicide application • 4. Stimulant application at BBCH 55 and 10-12 days later, standard fungicide programme • 5. […] In the experiment, uniform NPK fertilization was applied, using both bulk and liquid fertilizers.

[1] = tested on: apple trees (M9 rootstocks); conditions: 4 sprays at 14-day intervals; 3-chlorosalicylate 100 mg/L, benzothiadiazole salt 25 mg/L
Excerpt: Flowers were counted during the experiment, and the number of shoots and leaves in the fall.

lettuce = conditions: 3-chlorosalicylate 100 mg/L double application, benzothiadiazole salt 50 mg/L single application
Protocol: The purpose of the study was to determine the effect of foliar spraying with test solutions on lettuce plants (Lactuca sativa L. ‘Zeralda’) under abiotic stress conditions—low temperature. After 7 and 14 days after transplanting the plants to a permanent place, spraying of the plants was carried out. […] After another 7 days, low temperature stress was induced—plants were grown in three glass chambers with a day temperature of 22° C. and night temperatures of 4, 12 and 20° C. until harvest.

[2] = 3-chlorosalicylate 80 mg/L, benzothiadiazole salt 30 mg/L
[3] = BBCH 32, standard fungicide protection, 80 mg/L, benzothiadiazole salt 30 mg/L
[4] = BBCH 32, stimulant only, 80 mg/L, benzothiadiazole salt 30 mg/L
[5] = BBCH 55, standard fungicide protection, 80 mg/L, benzothiadiazole salt 30 mg/L
[6] = BBCH 55, without fungicide, 80 mg/L, benzothiadiazole salt 30 mg/L
[7] = first sampling date, 80 mg/L, benzothiadiazole salt 30 mg/L
[8] = last sampling date, late milk, 80 mg/L, benzothiadiazole salt 30 mg/L

## C[N+](C)(C)CCO.O=C([O-])c1cccc2nnsc12
tomato
  Chlorophyll content (SPAD), a day after treatment #1: 63.5 b
  Chlorophyll content (SPAD), a day after treatment #2: 61.3 b
  Chlorophyll content (SPAD), a day after treatment #3: 63.2 b
tomato; before treatment #1
  Chlorophyll content (SPAD), Treatment #1: 51.2 a
tomato; before treatment #2
  Chlorophyll content (SPAD), Treatment #2: 51.4 a
tomato; before treatment #3
  Chlorophyll content (SPAD), Treatment #3: 51.1 a
tomato; spray 3x
  Average fruit weight per plant: 148.70 b g
  Average weight of marketable fruit: 26.13 b kg/m^2
  Commercial yield: 18.13 b kg/m^2
  Number of fruits per plant: 4.17 b
  Total yield: 18.83 b kg/m^2
tomato; tomato fruits
  Calcium: 91.4 a mg/kg
  Lycopene: 36.5 b mg/kg
  Magnesium: 106.3 b mg/kg
  Vit. C: 200.1 c mg/kg
  Vit. E: 25.9 b mg/kg
  °Brix (sugar content of the liquid expressed in degree of Brix): 5.92 b g
Bell pepper; 20 mg/L
  Average dry mass: 13.3 c g
  Average fresh mass: 94.6 c g
  Average plant height, initial height, before first treatment: 43.5 b mm
  Average plant height, second treatment: 150.8 b mm
  Average plant height, third treatment: 226.6 c mm
  Plant height increase: 183.1 c mm
Bell pepper; [2]
  Average dry mass: 15.6 g·days
  Average fresh mass: 115.5 g·days
  Average plant height, initial height, before first treatment: 39.9 a mm
  Average plant height, second treatment: 142.9 a mm
  Average plant height, third treatment: 270.8 d mm
  Plant height increase: 230.9 d mm
Winter wheat; [3]
  increase in calcium uptake: 7%
  increase in gluten content of wheat grain: 9%
  increase in magnesium uptake: 8%
  increase in nitrogen uptake: 7%
  increase in phosphorus uptake: 9%
  increase in potassium uptake: 7%
  increase in protein content of wheat grain: 12%
Winter wheat; [4]
  increase in calcium uptake: 7%
  increase in gluten content of wheat grain: 8%
  increase in magnesium uptake: 9%
  increase in nitrogen uptake: 8%
  increase in phosphorus uptake: 9%
  increase in potassium uptake: 8%
  increase in protein content of wheat grain: 11%
Winter wheat; [5]
  increase in calcium uptake: 12%
  increase in gluten content of wheat grain: 10%
  increase in magnesium uptake: 11%
  increase in nitrogen uptake: 12%
  increase in phosphorus uptake: 11%
  increase in potassium uptake: 7%
  increase in protein content of wheat grain: 12%
Winter wheat; [6]
  increase in calcium uptake: 8%
  increase in gluten content of wheat grain: 9%
  increase in magnesium uptake: 10%
  increase in nitrogen uptake: 15%
  increase in phosphorus uptake: 11%
  increase in potassium uptake: 6%
  increase in protein content of wheat grain: 11%
Winter wheat; first sampling date (beginning of shooting), first of two sprayed objects (with / without fungicide, respectively), 80 mg/L, benzothiadiazole salt 30 mg/L
  fresh weight of aboveground part higher than control: 11%
Winter wheat; [7]
  dry root mass higher than control: 14%
  fresh root mass higher than control: 12%
Winter wheat; first sampling date, first of two sprayed objects, 80 mg/L, benzothiadiazole salt 30 mg/L
  dry weight of aboveground part higher than control: 10%
Winter wheat; first sampling date, second of two sprayed objects (with / without fungicide, respectively), 80 mg/L, benzothiadiazole salt 30 mg/L
  fresh weight of aboveground part higher than control: 14%
Winter wheat; first sampling date, second of two sprayed objects, 80 mg/L, benzothiadiazole salt 30 mg/L
  dry weight of aboveground part higher than control: 14%
Winter wheat; first term, stimulant at BBCH 32, with or without fungicide
  SPAD chlorophyll readings versus control: significantly higher
Winter wheat; [8]
  more aboveground biomass, BBCH 55 treatment compared to control: 30%
  more aboveground biomass, BBCH 55 treatment compared to plants sprayed at an earlier stage: 13%
  more root biomass, BBCH 55 treatment compared to control: 21%
  more root biomass, BBCH 55 treatment compared to plants sprayed at an earlier stage: 14%
Winter wheat; second sampling date
  fresh and dry root weight versus other experimental facilities: comparable
Winter wheat; second sampling date, end of heading
  fresh and dry matter yields versus other experimental facilities: comparable
Winter wheat; second term, stimulant at BBCH 32 without fungicide versus other objects
  SPAD chlorophyll readings: highest
Winter wheat; third term, with or without fungicide
  chlorophyll content of wheat leaves versus control: significantly higher
[1]
  Average number of flowers per plant: 31.1 b
  Average number of leaves per plant: 47.1 b
  Average number of shoots per plant: 6.5 b
lettuce; night temperature 4° C.
  Head weight, 4° C.: 47.6 b g/plant
lettuce; night temperature 12° C.
  Head weight, 12° C.: 54.9 b c g/plant
lettuce; night temperature 20° C.
  Head weight, 20° C.: 65.1 b g/plant
